Reference: PMC6979384, “Characterization of the plant homeodomain (PHD) reader family for their histone tail interactions” (Epigenetics & Chromatin, 2020)

What was measured:
Assay in all cases: Histone peptide microarray
Format in all cases: binding, human
[1] = tested on: RAG2; conditions: GST-tagged RAG2; histone peptide array; arrays performed twice, n of 4
Source text: (§1) To more comprehensively define the histone interactions of the 31 PHD readers identified from the domain microarray analyses, we probed each on an alternate microarray platform containing a library of 293 synthetic histone peptides with single or combinatorial PTMs (Additional file 2: Figure S4 and Additional file 3: Table S2).
(§2) The 31 GST-tagged PHD readers identified in the PHD finger domain array were expressed and purified as previously. Histone peptide arrays and peptide pulldown assays were conducted as recently described (specifically, the optimized protocol from Petell et al. for the former).
(§3) Supplementary file 13072_2020_328_MOESM3_ESM.xlsx: Additional file 3: Table S2. […] Excel Tab Peptide List is a compiled list of the entire 293 histone peptide library with amino acid sequence ranges. […] Each number corresponds to the peptide number designated in Peptide List. Excel Tab Average Signals is a compiled set of binding data: chromatin reader at 0.5 μM vs. entire 293 peptide library. Data is presented as the average and standard deviation of 4 replicates. The average signals are colored to indicate signal intensity with green being strong and white being weak/low. […] Key: red= stronger relative binding; blue = weaker relative binding. Excel Tab Array info summary is a table summarizing the domains, sequence coverage, array signal range, and noise for each of the GST-tagged readers assayed on the peptide microarrays.

[2] = tested on: PHF13; conditions: GST-tagged PHF13; histone peptide array; arrays performed twice, n of 4
Source text: as §1, §2, §3

[3] = tested on: DIDO1; conditions: GST-tagged DIDO1; histone peptide array; arrays performed twice, n of 4
Source text: as §1, §2, §3

[4] = tested on: KDM4C (TTP); conditions: GST-tagged KDM4C (TTP = Tandem Tudor domain + PHD); histone peptide array; arrays performed twice, n of 4
Source text: as §1, §2, §3

[5] = tested on: PHF2; conditions: GST-tagged PHF2; histone peptide array; arrays performed twice, n of 4
Source text: as §1, §2, §3

[6] = tested on: ING4; conditions: GST-tagged ING4; histone peptide array; arrays performed twice, n of 4
Source text: as §1, §2, §3

[7] = tested on: ING5; conditions: GST-tagged ING5; histone peptide array; arrays performed twice, n of 4
Source text: as §1, §2, §3

[8] = tested on: PHF21A; conditions: GST-tagged PHF21A; histone peptide array; arrays performed twice, n of 4
Source text: as §1, §2, §3

[9] = tested on: DPF2 (PPC2W2); conditions: GST-tagged DPF2 (PPC2W2 = Dual PHD + C2W2-type Zn-finger); histone peptide array; arrays performed twice, n of 4
Source text: as §1, §2, §3

[10] = tested on: BAZ2B; conditions: GST-tagged BAZ2B; histone peptide array; arrays performed twice, n of 4
Source text: as §1, §2, §3

[11] = tested on: KDM5B (1); conditions: GST-tagged KDM5B (1); histone peptide array; arrays performed twice, n of 4
Source text: as §1, §2, §3

[12] = tested on: TAF3; conditions: GST-tagged TAF3; histone peptide array; arrays performed twice, n of 4
Source text: as §1, §2, §3

[13] = tested on: ING2; conditions: GST-tagged ING2; histone peptide array; arrays performed twice, n of 4
Source text: as §1, §2, §3

[14] = tested on: BPTF (PB); conditions: GST-tagged BPTF (PB = PHD + Bromodomain); histone peptide array; arrays performed twice, n of 4
Source text: as §1, §2, §3

[15] = tested on: ING3; conditions: GST-tagged ING3; histone peptide array; arrays performed twice, n of 4
Source text: as §1, §2, §3

[16] = tested on: MLL5; conditions: GST-tagged MLL5; histone peptide array; arrays performed twice, n of 4
Source text: as §1, §2, §3

[17] = tested on: ING1; conditions: GST-tagged ING1; histone peptide array; arrays performed twice, n of 4
Source text: as §1, §2, §3

[18] = tested on: TRIM66 (PB); conditions: GST-tagged TRIM66 (PB = PHD + Bromodomain); histone peptide array; arrays performed twice, n of 4
Source text: as §1, §2, §3

[19] = tested on: KDM5A (1); conditions: GST-tagged KDM5A (1); histone peptide array; arrays performed twice, n of 4
Source text: as §1, §2, §3

[20] = tested on: CHD4 (PPCC); conditions: GST-tagged CHD4 (PPCC = Dual PHD + Dual Chromodomain); histone peptide array; arrays performed twice, n of 4
Source text: as §1, §2, §3

[21] = tested on: PHF23; conditions: GST-tagged PHF23; histone peptide array; arrays performed twice, n of 4
Source text: as §1, §2, §3

[22] = tested on: KDM5A (3); conditions: GST-tagged KDM5A (3); histone peptide array; arrays performed twice, n of 4
Source text: as §1, §2, §3

[23] = tested on: MORC3 (CW); conditions: GST-tagged MORC3 (CW = CW-type Zn-finger); histone peptide array; arrays performed twice, n of 4
Source text: as §1, §2, §3

[24] = tested on: CHD5 (PPCC); conditions: GST-tagged CHD5 (PPCC = Dual PHD + Dual Chromodomain); histone peptide array; arrays performed twice, n of 4
Source text: as §1, §2, §3

[25] = tested on: KDM7A; conditions: GST-tagged KDM7A; histone peptide array; arrays performed twice, n of 4
Source text: as §1, §2, §3

[26] = tested on: KDM5B (3); conditions: GST-tagged KDM5B (3); histone peptide array; arrays performed twice, n of 4
Source text: as §1, §2, §3

[27] = tested on: PHF8; conditions: GST-tagged PHF8; histone peptide array; arrays performed twice, n of 4
Source text: as §1, §2, §3

[28] = tested on: PHRF1 (RP); conditions: GST-tagged PHRF1 (RP); histone peptide array; arrays performed twice, n of 4
Source text: as §1, §2, §3

[29] = tested on: CHD5 (PCC); conditions: GST-tagged CHD5 (PCC = PHD + Dual Chromodomain); histone peptide array; arrays performed twice, n of 4
Source text: as §1, §2, §3

[30] = tested on: SP140L; conditions: GST-tagged SP140L; histone peptide array; arrays performed twice, n of 4
Source text: as §1, §2, §3

[31] = tested on: AIRE (PP); conditions: GST-tagged AIRE (PP); histone peptide array; arrays performed twice, n of 4
Source text: as §1, §2, §3

H4K5ac + K8ac + K12ac + K16ac: H4 1-23
Array Heatmap signal, RAG2 [1]: 0.2398 | Array Heatmap signal, PHF13 [2]: 0.598 | Array Heatmap signal, DIDO1 [3]: 0.6106 | Array Heatmap signal, KDM4C (TTP) [4]: 0.5368 | Array Heatmap signal, PHF2 [5]: 0.443 | Array Heatmap signal, ING4 [6]: 0.4555 | Array Heatmap signal, ING5 [7]: 0.371 | Array Heatmap signal, PHF21A [8]: 0.4657 | Array Heatmap signal, DPF2 (PPC2W2) [9]: 0.6508 | Array Heatmap signal, BAZ2B [10]: 0.5369 | Array Heatmap signal, KDM5B (1) [11]: 0.7197 | Array Heatmap signal, TAF3 [12]: 0.2729 | Array Heatmap signal, ING2 [13]: 0.572 | Array Heatmap signal, BPTF (PB) [14]: 0.4178 | Array Heatmap signal, ING3 [15]: 0.4391 | Array Heatmap signal, MLL5 [16]: 0.5322 | Array Heatmap signal, ING1 [17]: 0.4878 | Array Heatmap signal, TRIM66 (PB) [18]: 0.6818 | Array Heatmap signal, KDM5A (1) [19]: 0.4894 | Array Heatmap signal, CHD4 (PPCC) [20]: 0.5585 | Array Heatmap signal, PHF23 [21]: 0.4802 | Array Heatmap signal, KDM5A (3) [22]: 0.4106 | Array Heatmap signal, MORC3 (CW) [23]: 0.3746 | Array Heatmap signal, CHD5 (PPCC) [24]: 0.5534 | Array Heatmap signal, KDM7A [25]: 0.4726 | Array Heatmap signal, KDM5B (3) [26]: 0.5025 | Array Heatmap signal, PHF8 [27]: 0.3604 | Array Heatmap signal, PHRF1 (RP) [28]: 0.436 | Array Heatmap signal, CHD5 (PCC) [29]: 0.8346 | Array Heatmap signal, SP140L [30]: 0.3494 | Array Heatmap signal, AIRE (PP) [31]: 0.5646
